What was measured:
[1] = Inhibitory concentration against dipeptidyl peptidase IV
[2] = Inhibition constant against dipeptidyl peptidase IV

SMILES | IC50 [1] [nM] | Ki [2] [nM]
N[C@@H](C(=O)N1CCCC[C@@H]1C(=O)c1nccs1)C1CCCCC1 | > 100000 | –
CC(C)[C@H](N)C(=O)N1CCC[C@H]1B(O)O [TALABOSTAT] | – | 2
O=C(c1cccnc1)[C@@H]1CCCN1C(=O)[C@@H]1C[C@@H]2CCCC[C@@H]2N1 | > 100000 | –
N[C@@H](C(=O)N1CCCC[C@H]1C(=O)c1nccs1)C1CCCCC1 | > 100000 | –
O=C(c1nc2ccccc2s1)[C@@H]1CCCN1C(=O)CNC1CCCCC1 | 300 | –
C[C@H](N)C(=O)N1CCCC1P(=O)(Oc1ccccc1)Oc1ccccc1 (stereo not given in full) | 15 | –
O=c1c(C2CCCCC2)nc(-c2nccs2)c2n1CCC2 | > 100000 | –
N[C@@H](C(=O)N1CCC[C@@H]1C(=O)c1nccs1)C1CCCCC1 | 1000 | –
Cn1cncc1C(=O)[C@@H]1CCCN1C(=O)[C@@H]1C[C@@H]2CCCC[C@@H]2N1 | > 100000 | –
O=C(c1ccccc1)[C@@H]1CCCN1C(=O)[C@@H]1C[C@@H]2CCCC[C@@H]2N1 | > 100000 | –
CC(=O)[C@@H]1CCCN1C(=O)[C@@H]1C[C@@H]2CCCC[C@@H]2N1 | > 100000 | –

Now from value to compound, other results behind:

IC50 [1] [nM] | SMILES | Ki [2] [nM]
125 | N[C@H](C(=O)N1CCCC1)C1CCCCC1 | –
200 | CC[C@H](C)[C@H](N)C(=O)N1CC[C@H]1C(=O)c1nc2ccccc2s1 | –
100 | CC(C)(C)NCC(=O)N1CCC1C(=O)c1nc2ccccc2s1 (stereo not given) | –
150 | N[C@H](C(=O)N1CCSC1)C1CCCCC1 | –
8 | N#C[C@@H]1CCCN1C(=O)[C@@H](N)C1CCCCC1 | –
100 | CCC(C)C(N)C(=O)N1CCC[C@H]1C(=O)c1nc2ccccc2s1 (stereo not given in full) | –
115 | O=C(c1nc2ccccc2s1)C1CCN1C(=O)[C@@H]1C[C@@H]2CCCC[C@@H]2N1 (stereo not given in full) | –
190 | O=C(c1nc2ccccc2s1)[C@@H]1CCN1C(=O)CNC1CCCCC1 | –
40 | N[C@@H](C(=O)N1CC[C@@H]1C(=O)c1nccs1)C1CCCCC1 | –

— ChEMBL document CHEMBL1138026, “Ketopyrrolidines and ketoazetidines as potent dipeptidyl peptidase IV (DPP IV) inhibitors” (Bioorg Med Chem Lett, 2004)
